Laboratory results: US6376497B1, “Antifungal azole derivatives having a fluorinated vinyl group and process for preparing same” (Korea Research Institute of Chemical Technology, priority 1999, dated 2002)
≈ marks a conversion by molar mass, not a printed value. Like-named read-outs stand apart in the source and are kept apart here.

Columns and labels:
Test in all cases: In vitro antifungal activity, microbroth dilution MIC
Assay type in all cases: cell-based
[1] = test system: Aspergillus furnigatus B. 19119; details: Aspergillus
Method in brief: (§1)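 Broth microdilution adapted from NCCLS M27, in RPMI-1640 with 0.165 M MOPS, pH 7.0. Yeast or mould inoculum at 2×10^3 CFU/ml was mixed 1:1 with DMSO-derived compound solutions (200 to 0.10 μg/ml before mixing) and incubated at 35 °C for 4 to 48 h. MIC was the concentration showing no growth.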

[2] = test system: Aspergillus niger A. 16404; details: Aspergillus niger
Method in brief: as §1

[3] = test system: Candida albicans A. 10231; details: Candida albicans, 4 to 48 hours
Method in brief: as §1

[4] = test system: Candida albicans C1-2; details: Candida albicans, 4 to 48 hours
Method in brief: as §1

[5] = test system: Candida albicans IFO. 1385; details: Candida albicans, 4 to 48 hours
Method in brief: as §1

[6] = test system: Candida krusei K. 11655; details: Pichia kudriavzevii, 4 to 48 hours
Method in brief: as §1

[7] = test system: Candida parapsitosis A. 7330; details: Candida, 4 to 48 hours
Method in brief: as §1

[8] = test system: Candida pseudotropicalis K. 11658; details: Kluyveromyces marxianus, 4 to 48 hours
Method in brief: as §1

[9] = test system: Candida tropicalis A. 13803; details: Candida tropicalis, 4 to 48 hours
Method in brief: as §1

[10] = test system: Cryptococcus neoformans A. 34144; details: Cryptococcus neoformans
Method in brief: as §1

[11] = test system: Cryptococcus neoformans B. 42419; details: Cryptococcus neoformans, 4 to 48 hours
Method in brief: as §1

[12] = test system: Cryptococcus neoformans IFM. 40092; details: Cryptococcus neoformans
Method in brief: as §1

[13] = test system: Torulopsis glabrata B. 16205; details: Nakaseomyces glabratus, 4 to 48 hours
Method in brief: as §1

[14] = test system: Trichophyton mentagrophytes A. 9129; details: Trichophyton mentagrophytes
Method in brief: as §1

[15] = A furnigatus B. 19119, RPMI-1640, 35° C., 4 to 48 hours, read-out: Minimal inhibitory concentration (MIC)
[16] = B.19119, RPMI-1640, 35° C., 4 to 48 hours, no growth observed, read-out: Minimal inhibitory concentration(MIC), A furnigatus B. 19119
[17] = B.19119, RPMI-1640, 35° C., no growth observed, read-out: Minimal inhibitory concentration (MIC), A furnigatus B. 19119
[18] = A. niger A. 16404, RPMI-1640, 35° C., 4 to 48 hours, read-out: Minimal inhibitory concentration (MIC)
[19] = A.16404, RPMI-1640, 35° C., 4 to 48 hours, no growth observed, read-out: Minimal inhibitory concentration(MIC), A. niger A. 16404
[20] = A.16404, RPMI-1640, 35° C., no growth observed, read-out: Minimal inhibitory concentration (MIC), A. niger A. 16404
[21] = A.10231, RPMI-1640, 35° C., no growth observed, read-out: Minimal inhibitory concentration(MIC), C. albicans A. 10231
[22] = C. albicans A. 10231, RPMI-1640, 35° C., read-out: Minimal inhibitory concentration (MIC)
[23] = C12, C. albicans C1-2, RPMI-1640, 35° C., read-out: Minimal inhibitory concentration (MIC)
[24] = C12, RPMI-1640, 35° C., no growth observed, read-out: Minimal inhibitory concentration(MIC), C. albicans C1-2
[25] = C. albicans IFO. 1385, RPMI-1640, 35° C., read-out: Minimal inhibitory concentration (MIC)
[26] = IFO.1385, RPMI-1640, 35° C., no growth observed, read-out: Minimal inhibitory concentration(MIC), C. albicans IFO. 1385
[27] = C. krusei K. 11655, RPMI-1640, 35° C., read-out: Minimal inhibitory concentration (MIC)
[28] = K.11655, RPMI-1640, 35° C., no growth observed, read-out: Minimal inhibitory concentration(MIC), C. krusei K. 11655
[29] = A.7330, RPMI-1640, 35° C., no growth observed, read-out: Minimal inhibitory concentration(MIC), C. parapsitosis A. 7330
[30] = C. parapsitosis A. 7330, RPMI-1640, 35° C., read-out: Minimal inhibitory concentration (MIC)
[31] = C. pseudotropicalis K. 11658, RPMI-1640, 35° C., read-out: Minimal inhibitory concentration (MIC)
[32] = K.11658, RPMI-1640, 35° C., no growth observed, read-out: Minimal inhibitory concentration(MIC), C. pseudotropicalis K. 11658
[33] = A.13803, RPMI-1640, 35° C., no growth observed, read-out: Minimal inhibitory concentration(MIC), C. tropicalis A. 13803
[34] = C. tropicalis A. 13803, RPMI-1640, 35° C., read-out: Minimal inhibitory concentration (MIC)
[35] = A.34144, RPMI-1640, 35° C., 4 to 48 hours, no growth observed, read-out: Minimal inhibitory concentration(MIC), Cry. neoformans A. 34144
[36] = A.34144, RPMI-1640, 35° C., no growth observed, read-out: Minimal inhibitory concentration (MIC), Cry. neoformans A. 34144
[37] = Cry. neoformans A. 34144, RPMI-1640, 35° C., 4 to 48 hours, read-out: Minimal inhibitory concentration (MIC)
[38] = B.42419, RPMI-1640, 35° C., no growth observed, read-out: Minimal inhibitory concentration(MIC), Cry. neoformans B. 42419
[39] = Cry. neoformans B. 42419, RPMI-1640, 35° C., read-out: Minimal inhibitory concentration (MIC)
[40] = Cry. neoformans IFM. 40092, RPMI-1640, 35° C., 4 to 48 hours, read-out: Minimal inhibitory concentration (MIC)
[41] = IFM.40092, RPMI-1640, 35° C., 4 to 48 hours, no growth observed, read-out: Minimal inhibitory concentration(MIC), Cry. neoformans IFM. 40092
[42] = IFM.40092, RPMI-1640, 35° C., no growth observed, read-out: Minimal inhibitory concentration (MIC), Cry. neoformans IFM. 40092
[43] = B.16205, RPMI-1640, 35° C., no growth observed, read-out: Minimal inhibitory concentration(MIC), T. glabrata B. 16205
[44] = T. glabrata B. 16205, RPMI-1640, 35° C., read-out: Minimal inhibitory concentration (MIC)
[45] = A.9129, RPMI-1640, 35° C., 4 to 48 hours, no growth observed, read-out: Minimal inhibitory concentration(MIC), T. mentagrophytes A. 9129
[46] = A.9129, RPMI-1640, 35° C., no growth observed, read-out: Minimal inhibitory concentration (MIC), T. mentagrophytes A. 9129
[47] = T. mentagrophytes A. 9129, RPMI-1640, 35° C., 4 to 48 hours, read-out: Minimal inhibitory concentration (MIC)

Row | Structure (SMILES) | MIC [1, 15] | MIC [1, 16] | MIC [1, 17] | MIC [2, 18] | MIC [2, 19] | MIC [2, 20] | MIC [3, 21] | MIC [3, 22] | MIC [4, 23] | MIC [4, 24] | MIC [5, 25] | MIC [5, 26] | MIC [6, 27] | MIC [6, 28] | MIC [7, 29] | MIC [7, 30] | MIC [8, 31] | MIC [8, 32] | MIC [9, 33] | MIC [9, 34] | other results
1 | OC(Cn1cncn1)(Cn1cncn1)c1ccc(F)cc1F [fluconazole, reference compound] | > 100 µg/mL | > 100 µg/mL | > 100 µg/mL | > 100 µg/mL | > 100 µg/mL | > 100 µg/mL | > 100 µg/mL | > 100 µg/mL | > 100 µg/mL | > 100 µg/mL | 12.5 µg/mL (≈ 40.8 µM) | 12.5 µg/mL (≈ 40.8 µM) | 25 µg/mL (≈ 81.6 µM) | 25 µg/mL (≈ 81.6 µM) | 12.5 µg/mL (≈ 40.8 µM) | 12.5 µg/mL (≈ 40.8 µM) | 12.5 µg/mL (≈ 40.8 µM) | 12.5 µg/mL (≈ 40.8 µM) | > 100 µg/mL | > 100 µg/mL | MIC [10, 35]: 12.5 µg/mL (≈ 40.8 µM); MIC [10, 36]: 12.5 µg/mL (≈ 40.8 µM); MIC [10, 37]: 12.5 µg/mL (≈ 40.8 µM); MIC [11, 38]: 25 µg/mL (≈ 81.6 µM); MIC [11, 39]: 25 µg/mL (≈ 81.6 µM); MIC [12, 40]: 3.13 µg/mL (≈ 10.2 µM); MIC [12, 41]: 3.13 µg/mL (≈ 10.2 µM); MIC [12, 42]: 3.13 µg/mL (≈ 10.2 µM); MIC [13, 43]: 100 µg/mL (≈ 327 µM); MIC [13, 44]: 100 µg/mL (≈ 327 µM); MIC [14, 45]: 50 µg/mL (≈ 163 µM); MIC [14, 46]: 50 µg/mL (≈ 163 µM); MIC [14, 47]: 50 µg/mL (≈ 163 µM)
2 | CCC(C)n1ncn(-c2ccc(N3CCN(c4ccc(OCC5COC(Cn6cncn6)(c6ccc(Cl)cc6Cl)O5)cc4)CC3)cc2)c1=O (stereo not drawn) [itraconazole, reference compound] | ≤ 0.1 µg/mL | ≤ 0.1 µg/mL | ≤ 0.1 µg/mL | 1.56 µg/mL (≈ 2.21 µM) | 1.56 µg/mL (≈ 2.21 µM) | 1.56 µg/mL (≈ 2.21 µM) | > 100 µg/mL | > 100 µg/mL | > 100 µg/mL | > 100 µg/mL | 1.56 µg/mL (≈ 2.21 µM) | 1.56 µg/mL (≈ 2.21 µM) | 0.39 µg/mL (≈ 0.553 µM) | 0.39 µg/mL (≈ 0.553 µM) | 0.78 µg/mL (≈ 1.11 µM) | 0.78 µg/mL (≈ 1.11 µM) | 0.39 µg/mL (≈ 0.553 µM) | 0.39 µg/mL (≈ 0.553 µM) | > 100 µg/mL | > 100 µg/mL | MIC [10, 35]: 0.39 µg/mL (≈ 0.553 µM); MIC [10, 36]: 0.39 µg/mL (≈ 0.553 µM); MIC [10, 37]: 0.39 µg/mL (≈ 0.553 µM); MIC [11, 38]: 0.39 µg/mL (≈ 0.553 µM); MIC [11, 39]: 0.39 µg/mL (≈ 0.553 µM); MIC [12, 40]: ≤ 0.1 µg/mL; MIC [12, 41]: ≤ 0.1 µg/mL; MIC [12, 42]: ≤ 0.1 µg/mL; MIC [13, 43]: 50 µg/mL (≈ 70.9 µM); MIC [13, 44]: 50 µg/mL (≈ 70.9 µM); MIC [14, 45]: ≤ 0.1 µg/mL; MIC [14, 46]: ≤ 0.1 µg/mL; MIC [14, 47]: ≤ 0.1 µg/mL
